Read-outs that look alike come from different tables or passages of the source.
Columns and labels:
[1] = Corrosion Test 1 (dynamic wheel test; 3 wt% brine/Mentor 28; CO2 + H2S); details: 24 h, 70° C.
Method: (§1) For each compound three mild steel coupons (approximately 100 mm×12 mm×1.5 mm) were tested at each concentration. Each was contacted in a 250 ml bottle with 200 ml of a test fluid either saturated with a carbon dioxide at 20° C. or containing 100 ppm hydrogen sulphide or having both CO2 and H2 S present in those amounts. The test fluid was treated with a 30% aqueous solution of the compound under test at 2, 10, 50 and 250 ppm except where indicated to the contrary. The coupon was subjected to a dynamic wheel test in which the bottle was mounted radially on the periphery of 650 mm diameter wheel which was rotated at about 40 rpm for 24 hours at 70° C. The weight loss was obtained, and also measured in a control experiment where no inhibitor was present. From this the % protection was calculated as % reduction in weight loss.
Test fluid: 100 ml 3 wt% brine/100 ml Mentor 28 (Mentor®28 is a depolarised kerosene available from Exxon Chemical Company)
(§2) Corrosives: Saturated CO2 +100 ppm H2 S

[2] = Film persistency corrosion test; details: CO2 + H2S, 24 h, 70° C.
Method: […] A test fluid made up of equal proportions of 3 wt% brine and Mentor 28 was used, saturated with CO2 and containing 100 ppm H2 S as corrosives. Coupons were used as described for the previous corrosion test. A coupon was first immersed in test fluid containing corrosives and the inhibitor under test for 1 hour, then rinsed for 1 hour in a similar test fluid containing no inhibitor and finally transferred to a further test fluid again containing no inhibitor in which the dynamic wheel test was carried out at 70° C. for 24 hours.

[3] = Emulsion Test (3 wt% brine / heptane); format: physicochemical; design: Emulsion thickness after 30 mins: unit not given here; details: for Time to break emulsion: 1 ml of 35 wt% IPA solution, 50 ml 3 wt% brine, 50 ml heptane; for Emulsion thickness after 30 mins / Appearance after 30 mins, hydrocarbon / Appearance after 30 mins, water: 50 ml 3 wt% brine/50 ml heptane; for Appearance after 30 mins, hydrocarbon: hydrocarbon layer; for Appearance after 30 mins, water: water layer
Method: 1 ml of the solutions used for Test A was shaken with 50 ml of 3 wt% brine and 50 ml of heptane for 1 minute in a 150 ml bottle. The emulsion was observed, and the time noted for the emulsion to break and form a clean interface with clear liquid layers. If at 30 minutes this had not occurred, the appearance was recorded together with the thickness of any persisting emulsion.

[4] = Corrosion Test 2 (dynamic wheel test; 3 wt% brine; CO2 + H2S); details: 24 h, 70° C.
Method: as §1
Test Fluid: 200 ml 3 wt% brine
as §2

[5] = Corrosion Test 4 (dynamic wheel test; 3 wt% brine + Mentor 28; H2S); details: 24 h, 70° C.
Method: as §1
(§3) Test fluid: 100 ml 3 wt% brine+100 ml Mentor 28
Corrosives: 100 ppm H2 S (prior nitrogen purge)

[6] = Solubility Test (35 wt% solution in isopropylalcohol shaken with water, brine or heptane); format: physicochemical
Method: The active material under test was made up into a 35 wt% solution in isopropylalcohol (IPA). 0.3 ml of this solution was shaken with 10 ml of each of the liquids in which solubility is to be tested: water, 5 wt% NaCl solution (brine) and heptane. The mixture was observed after 30 minutes and 24 hours.

[7] = Corrosion Test 3 (dynamic wheel test; 3 wt% brine + Mentor 28; CO2 only); details: 24 h, 70° C.
Method: as §1, §3
Corrosives: Saturated CO2 only

[8] = 0.3 ml of 35 wt% IPA solution in 10 ml water, observed after 30 minutes and 24 hours
[9] = 2 ppm, * active material added as undiluted compound
[10] = 10 ppm, * active material added as undiluted compound
[11] = 50 ppm, * active material added as undiluted compound
[12] = 250 ppm, * active material added as undiluted compound
[13] = 0.3 ml of 35 wt% IPA solution in 10 ml heptane, 30 minutes and 24 hours
[14] = 0.3 ml of 35 wt% IPA solution in 10 ml 5 wt% NaCl solution, 30 minutes and 24 hours

SMILES	% Protection ([1]; 2 ppm, 30% solution) [%]	% Protection ([1]; 10 ppm, 30% solution) [%]	% Protection ([1]; 50 ppm, 30% solution) [%]	% Protection ([1]; 250 ppm, 30% solution) [%]	% Protection ([2]; 500 ppm) [%]	% Protection ([2]; 1000 ppm) [%]	% Protection ([2]; 5000 ppm) [%]	Time to break emulsion [3] [min]	Appearance after 30 mins, hydrocarbon [3]	Appearance after 30 mins, water [3]	% Protection ([4]; 2 ppm) [%]	% Protection ([4]; 10 ppm) [%]	% Protection ([4]; 50 ppm) [%]	% Protection ([4]; 250 ppm) [%]	% Protection ([5]; 10 ppm) [%]	% Protection ([5]; 250 ppm) [%]	SOLUBILITY IN: Water [6, 8]	% Protection ([7]; 2 ppm) [%]	% Protection ([7]; 10 ppm) [%]	% Protection ([7]; 250 ppm) [%]	other results
CCCCCCCCCCCCCCCCCCNCCc1ccncc1 [Example 28]	8	23	48	87	16	16	23	> 30	hazy	clear	11	94	96	95	3	56	S	8	12	9	Emulsion thickness after 30 mins [3]: 4.0; % Protection ([5]; 2 ppm): 2%; % Protection ([5]; 50 ppm): 49%
c1ccc(CNCCc2ccccn2)cc1 [Example 8]	21	72	81	81	19	22	24	> 30	clear	hazy	37	69	75	85	12	55	S	13	32	37	% Protection [1, 9]: 46%; % Protection [1, 10]: 53%; % Protection [1, 11]: 88%; % Protection [1, 12]: 97%; % Protection ([5]; 2 ppm): 8%; % Protection ([5]; 50 ppm): 40%; SOLUBILITY IN: Heptane [6, 13]: S; % Protection ([7]; 50 ppm): 34%
CCCCCCCCCCCCCCCCCCNCCc1ccccn1 [Example 7]	13	52	87	95	13	10	19	> 30	emulsified	clear	81	89	99	99	–	–	S	2	22	67	SOLUBILITY IN: Heptane [6, 13]: S; % Protection ([7]; 50 ppm): 48%
NCCNCCNCCNCCc1ccncc1 [Example 35]	–	–	–	–	19	18	20	1	clear	clear	–	–	–	–	–	–	S	–	–	–	SOLUBILITY IN: Brine [6, 14]: S
CCCCCCNCCc1ccncc1 [Example 22]	41	67	81	87	19	20	23	1	clear	clear	11	9	41	74	50	67	–	9	5	7	% Protection ([5]; 2 ppm): 8%; % Protection ([5]; 50 ppm): 67%; SOLUBILITY IN: Brine [6]: S; SOLUBILITY IN: Heptane [6]: S; SOLUBILITY IN: Water [6]: S; % Protection ([7]; 50 ppm): 13%
CCCCCCNCCc1ccccn1 [Example 1]	15	73	79	91	18	25	17	30	clear	clear	13	57	83	93	22	55	–	–	–	–	% Protection ([5]; 2 ppm): 0%; % Protection ([5]; 50 ppm): 55%; SOLUBILITY IN: Brine [6]: S; SOLUBILITY IN: Heptane [6]: S; SOLUBILITY IN: Water [6]: S
NCCNCCNCCc1ccccn1 [Example 15]	32	72	80	87	13	11	17	10	clear	clear	22	63	81	87	–	–	S	–	–	–	SOLUBILITY IN: Brine [6, 14]: S
CCCCCCCCCCCCNCCc1ccncc1 [Example 25]	28	53	88	96	17	15	20	> 30	hazy	hazy	5	44	79	94	17	78	S	10	6	27	Emulsion thickness after 30 mins [3]: 0.2; % Protection ([5]; 2 ppm): 11%; % Protection ([5]; 50 ppm): 57%; SOLUBILITY IN: Heptane [6, 13]: S; % Protection ([7]; 50 ppm): 21%
CCCCCCCCCCCCNCCc1ccccn1 [Example 4]	21	73	93	94	14	14	14	> 30	hazy	hazy	24	94	95	96	42	66	S	0	0	61	% Protection ([5]; 2 ppm): 20%; % Protection ([5]; 50 ppm): 50%; SOLUBILITY IN: Heptane [6, 13]: S; % Protection ([7]; 50 ppm): 7%
NCCNCCc1ccccn1 [Example 13]	–	–	–	–	–	–	–	> 30	clear	hazy	40	42	74	89	40	57	S	0	10	23	% Protection [1, 9]: 43%; % Protection [1, 10]: 67%; % Protection [1, 11]: 82%; % Protection [1, 12]: 92%; SOLUBILITY IN: Brine [6, 14]: S; SOLUBILITY IN: Heptane [6, 13]: S; % Protection ([7]; 50 ppm): 19%

Reference: patent US4515708A, “Corrosion inhibitors” (Exxon Research & Engineering Co., priority 1982, dated 1985)
